According to ChEMBL document CHEMBL3392979, “Discovery and SAR study of c-Met kinase inhibitors bearing an 3-amino-benzo[d]isoxazole or 3-aminoindazole scaffold” (Bioorg Med Chem, 2015):

Experiments:
[1] = target: T1, Hepatocyte growth factor receptor (Homo sapiens, UniProt P08581); assay: Inhibition of purified recombinant c-MET (unknown origin) using poly (Glu, Tyr) substrate after 60 mins by ELISA
[2] = Antiproliferative activity against human EBC1 cells after 72 hrs; details: EBC-1, 72 h
[3] = target: T2, Vascular endothelial growth factor receptor 2 (Homo sapiens, UniProt P35968); assay: Inhibition of purified VEGFR2 (unknown origin) after 60 mins by ELISA
[4] = target: Fibroblast growth factor receptor 1 (Homo sapiens) (UniProt P11362); assay: Inhibition of purified FGFR1 (unknown origin) at 1 uM after 60 mins by ELISA
[5] = target: ALK tyrosine kinase receptor (Homo sapiens) (UniProt Q9UM73); assay: Inhibition of purified ALK (unknown origin) at 1 uM after 60 mins by ELISA
[6] = target: ALK tyrosine kinase receptor (Homo sapiens) (UniProt Q9UM73); assay: Inhibition of purified ALK (unknown origin) at 0.1 uM after 60 mins by ELISA
[7] = target: T1, Hepatocyte growth factor receptor; assay: Inhibition of purified c-MET (unknown origin) at 0.1 uM after 60 mins by ELISA
[8] = target: Receptor tyrosine-protein kinase erbB-2 (Homo sapiens) (UniProt P04626); assay: Inhibition of purified ErbB2 (unknown origin) at 1 uM after 60 mins by ELISA
[9] = target: Proto-oncogene tyrosine-protein kinase Src (Homo sapiens) (UniProt P12931); assay: Inhibition of purified c-Src (unknown origin) at 1 uM after 60 mins by ELISA
[10] = target: T2, Vascular endothelial growth factor receptor 2; assay: Inhibition of purified VEGFR2 (unknown origin) at 1 uM after 60 mins by ELISA
[11] = target: Tyrosine-protein kinase ABL1 (Homo sapiens) (UniProt P00519); assay: Inhibition of purified ABL (unknown origin) at 1 uM after 60 mins by ELISA
[12] = target: T1, Hepatocyte growth factor receptor; assay: Inhibition of purified c-MET (unknown origin) at 1 uM after 60 mins by ELISA
[13] = target: T2, Vascular endothelial growth factor receptor 2; assay: Inhibition of purified VEGFR2 (unknown origin) at 0.1 uM after 60 mins by ELISA
[14] = target: T1, Hepatocyte growth factor receptor; assay: Inhibition of purified c-MET (unknown origin) at 0.01 uM after 60 mins by ELISA
[15] = target: T2, Vascular endothelial growth factor receptor 2; assay: Inhibition of purified VEGFR2 (unknown origin) at 0.01 uM after 60 mins by ELISA
[16] = target: Insulin-like growth factor 1 receptor (Homo sapiens) (UniProt P08069); assay: Inhibition of purified IGF1R (unknown origin) at 1 uM after 60 mins by ELISA
[17] = target: Epidermal growth factor receptor (Homo sapiens) (UniProt P00533); assay: Inhibition of purified EGFR (unknown origin) at 1 uM after 60 mins by ELISA
[18] = target: Platelet-derived growth factor receptor alpha (Homo sapiens) (UniProt P16234); assay: Inhibition of purified PDGFRalpha (unknown origin) at 1 uM after 60 mins by ELISA
[19] = target: Vascular endothelial growth factor receptor 1 (Homo sapiens) (UniProt P17948); assay: Inhibition of purified Flt1 (unknown origin) at 1 uM after 60 mins by ELISA
[20] = target: Proto-oncogene tyrosine-protein kinase receptor Ret (Homo sapiens) (UniProt P07949); assay: Inhibition of purified RET (unknown origin) at 1 uM after 60 mins by ELISA
[21] = target: Receptor tyrosine-protein kinase erbB-4 (Homo sapiens) (UniProt Q15303); assay: Inhibition of purified ErbB4 (unknown origin) at 1 uM after 60 mins by ELISA
[22] = target: Platelet-derived growth factor receptor beta (Homo sapiens) (UniProt P09619); assay: Inhibition of purified PDGFRbeta (unknown origin) at 1 uM after 60 mins by ELISA
[23] = target: Ephrin type-A receptor 2 (Homo sapiens) (UniProt P29317); assay: Inhibition of purified EPH-A2 (unknown origin) at 1 uM after 60 mins by ELISA

Row | IC50 [1] | Compound | IC50 [2] | further results
1 | > 1000 nM | CN(C)Cc1cc(NC(=O)C2(C(=O)Nc3ccc(F)cc3)CC2)ccc1-c1cccc2[nH]nc(N)c12 | – | –
2 | – | Nc1noc2cccc(-c3ccc(NC(=O)CC(=O)Nc4ccc(F)cc4)cc3)c12 | > 10000 nM | –
3 | – | Nc1noc2cccc(-c3ccc(NC(=O)C4(C(=O)Nc5ccc(F)c(F)c5)CC4)cc3)c12 | > 10000 nM | –
4 | > 1000 nM | CC(C)(C(=O)Nc1ccc(F)cc1)C(=O)Nc1ccc(-c2cccc3onc(N)c23)cc1 | – | –
5 | – | Nc1noc2cccc(-c3ccc(NC(=O)C4(C(=O)Nc5ccc(F)cc5)CC4)cc3)c12 | 1200 nM | IC50 [3]: > 1000 nM
6 | > 1000 nM | Nc1n[nH]c2cccc(-c3ccc(NC(=O)C4(C(=O)Nc5ccc(F)cc5)CC4)c4ccccc34)c12 | – | –
7 | – | Nc1n[nH]c2cccc(-c3ccc(NC(=O)C4(C(=O)Nc5ccc(F)cc5F)CC4)cc3)c12 | 990 nM | –
8 | > 1000 nM | Nc1noc2cccc(-c3ccc(NC(=O)C4(C(=O)Nc5cccc(F)c5)CC4)cc3)c12 | – | –
9 | 1.8 nM | Nc1n[nH]c2cccc(-c3ccc(NC(=O)C4(C(=O)Nc5ccc(F)cc5)CC4)cc3F)c12 | 180 nM | inhibition [4]: 21.5%; inhibition [5]: 64.9%; inhibition [6]: 36.2%; inhibition [7]: 100%; inhibition [8]: 0%; inhibition [9]: 11.8%; inhibition [10]: 100%; inhibition [11]: 9.8%; inhibition [12]: 100%; inhibition [13]: 89.9%; inhibition [14]: 69.7%; inhibition [15]: 45.8%; inhibition [16]: 45.3%; inhibition [17]: 2.5%; inhibition [18]: 62.5%; inhibition [19]: 40.8%; inhibition [20]: 66.1%; inhibition [21]: 3%; inhibition [22]: 59.3%; inhibition [23]: 38.4%
10 | – | Nc1n[nH]c2cccc(-c3ccc(NC(=O)C4(C(=O)Nc5ccc(F)cc5)CC4)cc3)c12 | 820 nM | –
11 | – | Cc1ccc(NC(=O)C2(C(=O)Nc3ccc(-c4cccc5[nH]nc(N)c45)c(F)c3)CC2)cc1 | 910 nM | –
12 | > 1000 nM | Nc1noc2cccc(-c3ccc(NC(=O)C4(C(=O)Nc5ccc(-c6cnn(C7CCOCC7)c6)cc5)CC4)cc3)c12 | – | –
13 | – | C[C@@H](Oc1cc(-c2cnn(C3CCNCC3)c2)cnc1N)c1c(Cl)ccc(F)c1Cl [CRIZOTINIB] | 21 nM | –
14 | > 1000 nM | CN1CCN(c2ccc(NC(=O)C3(C(=O)Nc4ccc(-c5cccc6onc(N)c56)cc4)CC3)cc2F)CC1 | – | –
15 | – | Nc1noc2cccc(-c3ccc(NC(=O)C4(C(=O)Nc5ccc(F)cc5)CC4)cc3F)c12 | 900 nM | –
16 | – | Nc1n[nH]c2cccc(-c3ccc(NC(=O)C4(C(=O)Nc5ccc(Cl)cc5)CC4)cc3F)c12 | 990 nM | –
17 | – | Cc1ccc(NC(=O)C2(C(=O)Nc3ccc(-c4cccc5onc(N)c45)cc3)CC2)cc1 | 6300 nM | –
18 | – | CN1CCN(Cc2cc(NC(=O)C3(C(=O)Nc4ccc(-c5cccc6[nH]nc(N)c56)cc4)CC3)ccc2Cl)CC1 | > 10000 nM | –
19 | > 1000 nM | CC(C)C(C(=O)Nc1ccc(F)cc1)C(=O)Nc1ccc(-c2cccc3onc(N)c23)cc1 (stereo unspecified) | – | –
20 | > 1000 nM | COc1cc(NC(=O)C2(C(=O)Nc3ccc(F)cc3)CC2)ccc1-c1cccc2[nH]nc(N)c12 | – | –
21 | – | Nc1noc2cccc(-c3ccc(NC(=O)C4(C(=O)Nc5ccc(F)cc5F)CC4)cc3)c12 | > 10000 nM | –
22 | > 1000 nM | Nc1noc2cccc(-c3ccc(NC(=O)C4(C(=O)Nc5ccc(-c6cnn(C7CCNCC7)c6)cc5)CC4)cc3)c12 | – | –
23 | – | Nc1noc2cccc(-c3ccc(NC(=O)C4(C(=O)Nc5ccc(Cl)cc5)CC4)cc3)c12 | 6700 nM | –
24 | – | Cc1cc(NC(=O)C2(C(=O)Nc3ccc(F)cc3)CC2)ccc1-c1cccc2[nH]nc(N)c12 | 1000 nM | –
25 | > 1000 nM | CC(=O)c1ccc(-c2ccc(NC(=O)C3(C(=O)Nc4ccc(-c5cccc6onc(N)c56)cc4)CC3)cc2)s1 | – | –
26 | > 1000 nM | Cn1cc(-c2ccc(NC(=O)C3(C(=O)Nc4ccc(-c5cccc6onc(N)c56)cc4)CC3)cc2)cn1 | – | –
27 | > 1000 nM | Cn1nccc1-c1ccc(NC(=O)C2(C(=O)Nc3ccc(-c4cccc5onc(N)c45)cc3)CC2)cc1 | – | –
28 | – | Nc1n[nH]c2cccc(-c3ccc(NC(=O)C4(C(=O)Nc5ccc(F)cc5)CC4)c(F)c3)c12 | 510 nM | –
29 | > 1000 nM | COc1cc(NC(=O)C2(C(=O)Nc3ccc(-c4cccc5onc(N)c45)cc3)CC2)cc(OC)c1OC | – | –
